# Measurements reported in the supplement of paper PMC10307832.
# Experiments:
# Assay in all cases: relative viability (nuclei count vs DMSO), 5 days (fraction); higher = more cells survive
# Trametinib + Foretinib = compound: CC(=O)Nc1cccc(-n2c(=O)n(C3CC3)c(=O)c3c(Nc4ccc(I)cc4F)n(C)c(=O)c(C)c32)c1 [Trametinib] + COc1cc2c(Oc3ccc(NC(=O)C4(C(=O)Nc5ccc(F)cc5)CC4)cc3F)ccnc2cc1OCCCN1CCOCC1 [Foretinib] (partner 0.25 µM)
# How it was run: (§1)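 Relative viability is defined as nuclei in treated wells over nuclei in vehicle wells. Duplicate plates were run and medians reported. Lung cancer cell lines in 1536-well plates were dosed by pin tool one day after seeding, with one drug or with a fixed anchor-drug dose plus five library-drug doses (not always all listed) in √10 steps, and nuclei were counted after 5 days.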
# [1] = compound: CN1C=C(C2=CC=CC=C21)/C=C\3/C4=C(C=CC=N4)NC3=O + Cc1nc(NC(=O)N2CCC[C@H]2C(N)=O)sc1-c1ccnc(C(C)(C)C(F)(F)F)c1 [Alpelisib] (partner 2 µM)
# How it was run: as §1
# Trametinib + Navitoclax = compound: CC(=O)Nc1cccc(-n2c(=O)n(C3CC3)c(=O)c3c(Nc4ccc(I)cc4F)n(C)c(=O)c(C)c32)c1 [Trametinib] + CC1(C)CCC(c2ccc(Cl)cc2)=C(CN2CCN(c3ccc(C(=O)NS(=O)(=O)c4ccc(N[C@H](CCN5CCOCC5)CSc5ccccc5)c(S(=O)(=O)C(F)(F)F)c4)cc3)CC2)C1 [Navitoclax] (partner 0.5 µM)
# How it was run: as §1
# [2] = compound: CN1C=C(C2=CC=CC=C21)/C=C\3/C4=C(C=CC=N4)NC3=O + Cc1cc(Nc2cc(N3CCN(C)CC3)nc(Sc3ccc(NC(=O)C4CC4)cc3)n2)n[nH]1 [Tozasertib] (partner 0.1 µM)
# How it was run: as §1
Cell Line,relative viability (Trametinib + Foretinib; first compound 0.0025 µM),relative viability (Trametinib + Foretinib; first compound 0.007906 µM),relative viability (Trametinib + Foretinib; first compound 0.025 µM),relative viability (Trametinib + Foretinib; first compound 0.07906 µM),relative viability (Trametinib + Foretinib; first compound 0.25 µM),relative viability ([1]; first compound 0.02 µM),relative viability ([1]; first compound 0.06325 µM),relative viability ([1]; first compound 0.2 µM),relative viability ([1]; first compound 0.6325 µM),relative viability ([1]; first compound 2 µM),relative viability (Trametinib + Navitoclax; first compound 0.0025 µM),relative viability (Trametinib + Navitoclax; first compound 0.007906 µM),relative viability (Trametinib + Navitoclax; first compound 0.025 µM),relative viability (Trametinib + Navitoclax; first compound 0.07906 µM),relative viability (Trametinib + Navitoclax; first compound 0.25 µM),relative viability ([2]; first compound 0.02 µM),relative viability ([2]; first compound 0.06325 µM),relative viability ([2]; first compound 0.2 µM),relative viability ([2]; first compound 0.6325 µM),relative viability ([2]; first compound 2 µM)
NCI-H1437,1.24,1.06,0.754,0.664,0.588,0.877,0.897,1.15,1.1,1.16,1.15,0.724,0.537,0.377,0.312,0.39,0.427,0.417,0.438,0.463
PC-14,0.911,0.823,0.809,0.885,0.693,0.99,1.03,1.19,0.906,1.04,0.99,1.05,0.978,0.882,0.452,0.564,0.525,0.585,0.553,0.541
COR-L23,1.05,1.04,0.953,0.777,0.45,0.764,0.698,0.718,0.724,0.589,0.977,1.02,1.04,0.694,0.475,0.21,0.187,0.222,0.162,0.151
H3255,0.794,0.857,0.501,0.728,0.509,0.705,0.722,0.642,0.757,0.855,0.468,0.316,0.251,0.161,0.18,0.739,0.624,0.847,0.638,0.866
NCI-H2126,1.01,1.05,0.994,1,0.816,0.794,0.775,0.741,0.716,0.6,0.781,0.684,0.516,0.589,0.508,0.85,0.756,0.807,0.807,0.836
HCC-366,0.875,0.765,0.768,0.49,0.228,0.296,0.328,0.284,0.31,0.267,0.977,0.926,0.7,0.531,0.275,0.09,0.109,0.0765,0.0587,0.0526
LU99A,0.793,0.817,0.637,0.53,0.438,0.479,0.487,0.555,0.5,0.504,0.855,0.779,0.465,0.363,0.235,0.252,0.264,0.278,0.257,0.256
HOP-62,1.04,0.948,0.623,0.341,0.252,0.821,0.843,0.957,0.926,1.07,1.05,1.03,0.741,0.617,0.198,0.31,0.359,0.412,0.406,0.422
HCC-15,0.75,0.559,0.343,0.244,0.201,1.01,0.848,0.808,0.889,0.958,0.505,0.336,0.243,0.247,0.189,0.322,0.406,0.493,0.346,0.531
HARA,0.834,0.555,0.58,0.515,0.232,0.677,0.812,0.783,0.63,0.734,0.984,1.1,1.14,1.06,0.976,0.0897,0.112,,0.0723,0.0941
SK-MES-1,0.913,0.476,0.638,0.566,0.347,0.763,0.853,0.84,0.963,1.02,1.3,1.25,0.943,0.624,0.357,0.945,0.749,0.917,0.874,0.886
NCI-H1355,0.993,0.725,0.519,0.606,0.488,0.663,0.66,0.739,0.468,0.547,0.764,0.832,0.51,0.563,0.414,0.52,0.599,0.523,0.412,0.368
NCI-H727,0.455,0.269,0.359,0.32,0.238,0.48,0.533,0.307,0.466,0.604,0.158,0.117,0.0956,0.0926,0.0927,0.554,0.447,0.59,0.636,0.633
